Reference: the supplement of paper PMC10307832

Experiments:
Experiment in all cases: relative viability (nuclei count vs DMSO), 5 days (fraction); higher = more cells survive
201T = system: 201T
Summary of the method: (§1)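 Lung cancer cell lines in 1536-well plates got either a single drug or a fixed anchor-drug dose together with five library-drug doses (not always all listed) in √10 steps, by pin tool, on the day after seeding. Nuclei were counted after 5 days, and relative viability is the treated-to-vehicle ratio of nuclei counts. Values are medians of duplicate plates.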

ABC-1 = system: ABC-1
Summary of the method: as §1

BEN = system: BEN
Summary of the method: as §1

CAL-12T = system: CAL-12T
Summary of the method: as §1

COR-L 105 = system: COR-L 105
Summary of the method: as §1

COR-L23 = system: COR-L23
Summary of the method: as §1

EKVX = system: EKVX
Summary of the method: as §1

HARA = system: HARA
Summary of the method: as §1

HCC-366 = system: HCC-366
Summary of the method: as §1

LK-2 = system: LK-2
Summary of the method: as §1

LU99A = system: LU99A
Summary of the method: as §1

NCI-H1437 = system: NCI-H1437
Summary of the method: as §1

NCI-H1650 = system: NCI-H1650
Summary of the method: as §1

NCI-H1666 = system: NCI-H1666
Summary of the method: as §1

NCI-H2009 = system: NCI-H2009
Summary of the method: as §1

NCI-H2170 = system: NCI-H2170
Summary of the method: as §1

NCI-H3122 = system: NCI-H3122
Summary of the method: as §1

NCI-H441 = system: NCI-H441
Summary of the method: as §1

NCI-H661 = system: NCI-H661
Summary of the method: as §1

NCI-H727 = system: NCI-H727
Summary of the method: as §1

NCI-H838 = system: NCI-H838
Summary of the method: as §1

PC-14 = system: PC-14
Summary of the method: as §1

SW 900 = system: SW 900
Summary of the method: as §1

O=C(O)c1ccc(-c2c[nH]c3ncc(-c4ccccc4)cc23)cc1C1CCCC1 + N=C(N)NC(=N)NCCc1ccccc1 [Phenformin] (partner 250 µM)
relative viability (201T; first compound 0.04 µM): 0.477 | relative viability (201T; first compound 0.1265 µM): 0.45 | relative viability (201T; first compound 0.4 µM): 0.456 | relative viability (201T; first compound 1.265 µM): 0.437 | relative viability (ABC-1; first compound 0.04 µM): 0.272 | relative viability (ABC-1; first compound 0.1265 µM): 0.232 | relative viability (ABC-1; first compound 0.4 µM): 0.229 | relative viability (ABC-1; first compound 1.265 µM): 0.181 | relative viability (BEN; first compound 0.04 µM): 0.274 | relative viability (BEN; first compound 0.1265 µM): 0.283 | relative viability (BEN; first compound 0.4 µM): 0.247 | relative viability (BEN; first compound 1.265 µM): 0.246 | relative viability (CAL-12T; first compound 0.04 µM): 0.549 | relative viability (CAL-12T; first compound 0.1265 µM): 0.629 | relative viability (CAL-12T; first compound 0.4 µM): 0.579 | relative viability (CAL-12T; first compound 1.265 µM): 0.337 | relative viability (COR-L 105; first compound 0.04 µM): 0.485 | relative viability (COR-L 105; first compound 0.1265 µM): 0.492 | relative viability (COR-L 105; first compound 0.4 µM): 0.489 | relative viability (COR-L 105; first compound 1.265 µM): 0.446 | relative viability (COR-L23; first compound 0.04 µM): 0.424 | relative viability (COR-L23; first compound 0.1265 µM): 0.507 | relative viability (COR-L23; first compound 0.4 µM): 0.437 | relative viability (COR-L23; first compound 1.265 µM): 0.268 | relative viability (EKVX; first compound 0.04 µM): 0.249 | relative viability (EKVX; first compound 0.1265 µM): 0.225 | relative viability (EKVX; first compound 0.4 µM): 0.245 | relative viability (EKVX; first compound 1.265 µM): 0.219 | relative viability (HARA; first compound 0.04 µM): 0.469 | relative viability (HARA; first compound 0.1265 µM): 0.479 | relative viability (HARA; first compound 0.4 µM): 0.459 | relative viability (HARA; first compound 1.265 µM): 0.372 | relative viability (HCC-366; first compound 0.04 µM): 0.686 | relative viability (HCC-366; first compound 0.1265 µM): 0.631 | relative viability (HCC-366; first compound 0.4 µM): 0.607 | relative viability (HCC-366; first compound 1.265 µM): 0.611 | relative viability (LK-2; first compound 0.04 µM): 0.733 | relative viability (LK-2; first compound 0.1265 µM): 0.699 | relative viability (LK-2; first compound 0.4 µM): 0.377 | relative viability (LK-2; first compound 1.265 µM): 0.367 | relative viability (LU99A; first compound 0.04 µM): 0.961 | relative viability (LU99A; first compound 0.1265 µM): 0.784 | relative viability (LU99A; first compound 0.4 µM): 0.865 | relative viability (LU99A; first compound 1.265 µM): 0.606 | relative viability (NCI-H1437; first compound 0.04 µM): 0.295 | relative viability (NCI-H1437; first compound 0.1265 µM): 0.298 | relative viability (NCI-H1437; first compound 0.4 µM): 0.319 | relative viability (NCI-H1437; first compound 1.265 µM): 0.202 | relative viability (NCI-H1650; first compound 0.04 µM): 0.469 | relative viability (NCI-H1650; first compound 0.1265 µM): 0.472 | relative viability (NCI-H1650; first compound 0.4 µM): 0.338 | relative viability (NCI-H1650; first compound 1.265 µM): 0.2 | relative viability (NCI-H1666; first compound 0.04 µM): 0.579 | relative viability (NCI-H1666; first compound 0.1265 µM): 0.552 | relative viability (NCI-H1666; first compound 0.4 µM): 0.508 | relative viability (NCI-H1666; first compound 1.265 µM): 0.363 | relative viability (NCI-H2009; first compound 0.04 µM): 0.519 | relative viability (NCI-H2009; first compound 0.1265 µM): 0.533 | relative viability (NCI-H2009; first compound 0.4 µM): 0.512 | relative viability (NCI-H2009; first compound 1.265 µM): 0.393 | relative viability (NCI-H2170; first compound 0.04 µM): 0.434 | relative viability (NCI-H2170; first compound 0.1265 µM): 0.413 | relative viability (NCI-H2170; first compound 0.4 µM): 0.459 | relative viability (NCI-H2170; first compound 1.265 µM): 0.362 | relative viability (NCI-H3122; first compound 0.04 µM): 0.355 | relative viability (NCI-H3122; first compound 0.1265 µM): 0.399 | relative viability (NCI-H3122; first compound 0.4 µM): 0.394 | relative viability (NCI-H3122; first compound 1.265 µM): 0.337 | relative viability (NCI-H441; first compound 0.04 µM): 0.765 | relative viability (NCI-H441; first compound 0.1265 µM): 1.15 | relative viability (NCI-H441; first compound 0.4 µM): 0.807 | relative viability (NCI-H441; first compound 1.265 µM): 0.28 | relative viability (NCI-H661; first compound 0.04 µM): 0.292 | relative viability (NCI-H661; first compound 0.4 µM): 0.285 | relative viability (NCI-H661; first compound 1.265 µM): 0.278 | relative viability (NCI-H727; first compound 0.04 µM): 0.464 | relative viability (NCI-H727; first compound 0.1265 µM): 0.684 | relative viability (NCI-H727; first compound 0.4 µM): 0.582 | relative viability (NCI-H727; first compound 1.265 µM): 0.509 | relative viability (NCI-H838; first compound 0.04 µM): 0.542 | relative viability (NCI-H838; first compound 0.1265 µM): 0.655 | relative viability (NCI-H838; first compound 0.4 µM): 0.596 | relative viability (NCI-H838; first compound 1.265 µM): 0.511 | relative viability (PC-14; first compound 0.04 µM): 0.588 | relative viability (PC-14; first compound 0.1265 µM): 0.678 | relative viability (PC-14; first compound 0.4 µM): 0.548 | relative viability (PC-14; first compound 1.265 µM): 0.604 | relative viability (SW 900; first compound 0.04 µM): 0.706 | relative viability (SW 900; first compound 0.1265 µM): 0.615 | relative viability (SW 900; first compound 0.4 µM): 0.654 | relative viability (SW 900; first compound 1.265 µM): 0.381
